The values that follow come from ChEMBL document CHEMBL3994642, “Design, synthesis and biological evaluation of 2-(4-phenylthiazol-2-yl) isoindoline-1,3-dione derivatives as anti-prostate cancer agents” (Bioorg Med Chem Lett, 2017).

Molecules are shown by their SMILES. Activity calls are given as the source filed them. The rule behind the calls is not given here.

In general, IC50 refers to the concentration needed to halve the response being measured.

In one assay the test system is PC-3. Description: Antiproliferative activity against AR negative human PC3 cells after 48 hrs by MTT assay. The format is functional, cell-based. The conditions noted are these: PC-3, 48 h. A general note: Tetrazolium assays rely on reduction of a dye to a coloured formazan, in cell work by metabolically active cells.
Assay [1] is described as follows: Selectivity ratio of IC50 for AR negative human PC3 cells to IC50 for AR T877A mutant in human LNCAP cells.
Assay [2] is described as follows: Selectivity index, ratio of IC50 for mouse 3T3 cells to IC50 for AR T877A mutant in human LNCAP cells. It is filed as functional.
Assay [3] deals with Androgen receptor (Homo sapiens), P10275 [T878A]. Description: Antagonist activity at AR T877A mutant in human LNCAP cells assessed as inhibition of DHT-induced Cyclin D1 mRNA level at 1 uM after 24 hrs by SYBR Green dye based qPCR method. The format is cell-based. For orientation: Real-time PCR tracks product formation cycle by cycle.
The test system is the same in assay [4]. The assay is described as follows: Antagonist activity at AR T877A mutant in human LNCAP cells assessed as inhibition of DHT-induced TMPRSS2 mRNA level at 1 uM after 24 hrs by SYBR Green dye based qPCR method. The format is cell-based.
Assay [5] shares this test system. Description: Antagonist activity at AR T877A mutant in human LNCAP cells assessed as inhibition of DHT-induced c-Myc mRNA level at 1 uM after 24 hrs by SYBR Green dye based qPCR method. The format is cell-based.
Assay [6] has the same test system. The assay is described as follows: Potency index, ratio of R-bicalutamide IC50 to compound IC50 for AR T877A mutant in human LNCAP cells assessed as inhibition of DHT-induced proliferation. The format is cell-based.
Assay [7] has the same test system. The assay is described as follows: Potency index, ratio of bicalutamide IC50 to compound IC50 for AR T877A mutant in human LNCAP cells assessed as inhibition of DHT-induced proliferation. The format is cell-based.
The target in assay [8] is T1, Estrogen receptor (Homo sapiens) (UniProt P03372).
T1 sequence (whole entry): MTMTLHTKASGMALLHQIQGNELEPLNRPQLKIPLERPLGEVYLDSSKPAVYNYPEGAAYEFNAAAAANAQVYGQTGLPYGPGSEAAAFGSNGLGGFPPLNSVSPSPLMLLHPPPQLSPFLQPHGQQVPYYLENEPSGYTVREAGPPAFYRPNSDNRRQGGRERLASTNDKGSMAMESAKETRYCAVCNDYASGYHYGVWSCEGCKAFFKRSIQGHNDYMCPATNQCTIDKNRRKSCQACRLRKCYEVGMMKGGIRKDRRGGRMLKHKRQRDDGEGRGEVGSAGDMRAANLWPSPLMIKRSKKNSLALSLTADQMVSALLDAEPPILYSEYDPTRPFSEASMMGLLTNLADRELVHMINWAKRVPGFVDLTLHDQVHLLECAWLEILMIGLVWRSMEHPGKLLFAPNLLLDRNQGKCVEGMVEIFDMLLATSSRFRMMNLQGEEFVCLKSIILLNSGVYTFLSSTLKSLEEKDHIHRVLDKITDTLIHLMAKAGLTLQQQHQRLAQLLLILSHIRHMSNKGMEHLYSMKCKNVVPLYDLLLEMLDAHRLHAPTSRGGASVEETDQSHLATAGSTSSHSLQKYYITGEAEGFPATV
Description: Activity at ER in human LNCAP cells assessed as inhibition of pS2 mRNA level at 5 uM after 24 hrs by SYBR Green dye based qPCR method. The format is cell-based.

The test system of assay [9] is Androgen receptor (Homo sapiens), P10275 [T878A]. The assay is described as follows: Antagonist activity at AR T877A mutant in human LNCAP cells assessed as inhibition of DHT-induced PSA mRNA level at 1 uM after 24 hrs by SYBR Green dye based qPCR method. It is filed as cell-based.

Chain of Androgen receptor (Homo sapiens), P10275 [T878A] (P10275 whole entry T878A): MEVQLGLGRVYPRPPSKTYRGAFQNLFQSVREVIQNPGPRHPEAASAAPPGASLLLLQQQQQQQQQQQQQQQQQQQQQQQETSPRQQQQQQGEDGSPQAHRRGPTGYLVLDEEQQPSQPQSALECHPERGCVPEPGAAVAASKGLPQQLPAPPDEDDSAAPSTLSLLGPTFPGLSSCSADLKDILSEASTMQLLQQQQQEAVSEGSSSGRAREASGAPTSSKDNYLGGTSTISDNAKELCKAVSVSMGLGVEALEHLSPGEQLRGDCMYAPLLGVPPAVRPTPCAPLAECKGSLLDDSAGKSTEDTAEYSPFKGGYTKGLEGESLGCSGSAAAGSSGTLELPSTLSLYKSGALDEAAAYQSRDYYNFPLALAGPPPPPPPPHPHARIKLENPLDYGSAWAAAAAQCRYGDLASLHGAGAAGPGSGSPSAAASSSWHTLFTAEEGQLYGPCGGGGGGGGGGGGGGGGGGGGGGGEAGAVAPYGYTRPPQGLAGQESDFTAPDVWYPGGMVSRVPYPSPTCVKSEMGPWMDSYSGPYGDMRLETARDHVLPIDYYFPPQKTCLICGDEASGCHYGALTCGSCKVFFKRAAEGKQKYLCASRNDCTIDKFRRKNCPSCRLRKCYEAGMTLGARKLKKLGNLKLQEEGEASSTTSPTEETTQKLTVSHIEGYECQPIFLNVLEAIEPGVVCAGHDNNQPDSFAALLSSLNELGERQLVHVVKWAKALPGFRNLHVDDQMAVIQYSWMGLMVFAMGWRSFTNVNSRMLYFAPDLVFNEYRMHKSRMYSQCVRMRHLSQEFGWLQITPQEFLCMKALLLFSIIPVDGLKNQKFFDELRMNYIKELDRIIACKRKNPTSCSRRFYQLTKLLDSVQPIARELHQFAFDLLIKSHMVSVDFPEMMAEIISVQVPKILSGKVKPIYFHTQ

Take `COc1ccc(-c2csc(N3C(=O)c4ccc(F)cc4C3=O)n2)cc1`: in the assay with PC-3, the 50% inhibitory concentration (IC50) turned out to be 41.3 µM. The figures for the “Ratio IC50” value in assay [1] and in [2] were 5.05 and 5.04, respectively.

The compound `O=C1c2ccccc2C(=O)N1c1nc(-c2ccc([N+](=O)[O-])cc2)cs1` returned a half-inhibitory concentration (IC50) in the assay with PC-3 of 41.8 µM. The “Ratio IC50” value in [1] is recorded as 3.17; in assay [2], 3.15.

`O=C1c2ccccc2C(=O)N1c1nc(-c2ccc(Cl)cc2)cs1` had an IC50 with PC-3 of 44.9 µM. Also, the “Ratio IC50” value was 1.71 in assay [1] and 1.91 in [2].

As to `N#Cc1ccc(-c2csc(N3C(=O)c4ccccc4C3=O)n2)cc1`, the half-inhibitory concentration (IC50) in the assay with PC-3 came to 40.3 µM. Moreover, the “Ratio IC50” value in assay [1] is given as 3.67; in assay [2] it was 3.57.

In the assay with PC-3, `O=C1c2ccc(F)cc2C(=O)N1c1nc(-c2ccc([N+](=O)[O-])cc2)cs1` returned an IC50 of 39.9 µM. The “Ratio IC50” value in [1] stood at 5.12; in assay [2] it was 4.69.

As for `O=C1c2ccccc2C(=O)N1c1nc(-c2ccccc2)cs1`, the IC50 with PC-3 stood at 43.9 µM. In addition, the “Ratio IC50” value is given as 1.19 in assay [1] and 1.26 in [2].

`O=C1c2ccc(F)cc2C(=O)N1c1nc(-c2ccccc2)cs1` returned an IC50 with PC-3 of 40.2 µM. For the same compound, the “Ratio IC50” value in assay [1] was determined as 1.17; in assay [2] it was 1.9.

`O=C1c2ccc(F)cc2C(=O)N1c1nc(-c2ccc(F)cc2)cs1` gave an IC50 in the assay with PC-3 of 39.5 µM. For the same compound, the “Ratio IC50” value is 1.8 in [1] and 2.04 in [2].

In the assay with PC-3, `Cc1ccc(-c2csc(N3C(=O)c4ccc(F)cc4C3=O)n2)cc1` gave an IC50 of 44.4 µM. For the same compound, the “Ratio IC50” value in [1] is recorded as 1.71; in assay [2], 1.51.

Consider `O=C1c2ccccc2C(=O)N1c1nc(-c2ccc(F)cc2)cs1`, for which inhibition in the assay on PC-3 was half-maximal at 37.2 µM (IC50). Moreover, the “Ratio IC50” value is listed as 1.3 in assay [1] and 1.36 in assay [2].

In the assay on PC-3, `Cc1ccc(-c2csc(N3C(=O)c4ccccc4C3=O)n2)cc1` had an IC50 of 38.4 µM. Also, the “Ratio IC50” value in [1] worked out at 1.32; in assay [2], 1.73.

In turn, `O=C1c2ccc(F)cc2C(=O)N1c1nc(-c2ccc(Cl)cc2)cs1` gave an IC50 in the assay on PC-3 of 38 µM. Also, the “Ratio IC50” value was determined as 1.35 in [1] and 1.59 in assay [2].

Consider `CC(O)(CS(=O)(=O)c1ccc(F)cc1)C(=O)Nc1ccc(C#N)c(C(F)(F)F)c1` (stereo unspecified) [BICALUTAMIDE], for which the midpoint of inhibition with PC-3, the IC50, lay at 60.7 µM.

`C[C@](O)(CS(=O)(=O)c1ccc(F)cc1)C(=O)Nc1ccc(C#N)c(C(F)(F)F)c1` [(R)-BICALUTAMIDE] came in with a half-inhibitory concentration (IC50) in the assay on PC-3 of 59.8 µM.

Compound `COc1ccc(-c2csc(N3C(=O)c4ccccc4C3=O)n2)cc1` yielded an IC50 with PC-3 of 42.9 µM. The “Ratio IC50” value in assay [1] was 3.14; in [2], 3.29.

Consider `N#Cc1ccc(-c2csc(N3C(=O)c4ccc(F)cc4C3=O)n2)cc1`, for which the inhibition result in [3], in [4], in assay [5] and in [9] was “Active” each time. The Ratio IC50 in assay [6] is 4.6; in assay [1] it was 7.23; in assay [2] it was 7.09; in assay [7], 7.4. In addition, the IC50 with PC-3 turned out to be 43.1 µM. The inhibition result in assay [8] was “inactive”.
